The target of test [1] is T1, Orai1 (Homo sapiens, UniProt Q96D31).
T1 construct: with STIM1
The experiment in a line: whole-cell patch clamp, Orai1/STIM1 co-expressing HEK […]. It is filed as cell-based. On the technique in general: The patch-clamp technique gives a direct electrical read-out from membranes.

For test [2], the target named is T2, TRPV3 (Homo sapiens, UniProt Q8NET8).
T2 sequence (Q8NET8 1-790): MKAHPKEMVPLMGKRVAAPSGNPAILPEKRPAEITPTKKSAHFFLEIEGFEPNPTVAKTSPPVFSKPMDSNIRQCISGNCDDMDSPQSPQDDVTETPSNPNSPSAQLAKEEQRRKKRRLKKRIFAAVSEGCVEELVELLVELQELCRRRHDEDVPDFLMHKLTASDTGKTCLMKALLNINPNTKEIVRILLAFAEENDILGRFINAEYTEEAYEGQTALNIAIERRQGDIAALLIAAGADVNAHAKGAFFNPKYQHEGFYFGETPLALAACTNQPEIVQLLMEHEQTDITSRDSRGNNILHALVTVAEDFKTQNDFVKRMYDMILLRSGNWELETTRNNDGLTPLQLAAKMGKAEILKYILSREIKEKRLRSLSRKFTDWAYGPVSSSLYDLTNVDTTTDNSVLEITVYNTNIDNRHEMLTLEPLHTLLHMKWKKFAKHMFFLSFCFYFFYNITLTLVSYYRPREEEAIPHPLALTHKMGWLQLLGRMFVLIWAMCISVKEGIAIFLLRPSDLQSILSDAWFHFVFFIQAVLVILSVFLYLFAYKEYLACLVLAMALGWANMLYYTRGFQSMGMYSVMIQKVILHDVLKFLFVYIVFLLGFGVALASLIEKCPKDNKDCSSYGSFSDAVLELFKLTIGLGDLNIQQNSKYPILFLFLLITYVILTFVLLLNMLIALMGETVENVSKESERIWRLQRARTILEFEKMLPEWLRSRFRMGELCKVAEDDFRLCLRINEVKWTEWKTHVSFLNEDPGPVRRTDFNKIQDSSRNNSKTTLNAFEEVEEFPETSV
As to the kind of experiment: whole-cell patch clamp, TRPV3-overexpressing HEK […], 2-APB-activated current. The class given is cell-based.

Structures are written as SMILES.

T1 sequence (Q96D31 whole entry): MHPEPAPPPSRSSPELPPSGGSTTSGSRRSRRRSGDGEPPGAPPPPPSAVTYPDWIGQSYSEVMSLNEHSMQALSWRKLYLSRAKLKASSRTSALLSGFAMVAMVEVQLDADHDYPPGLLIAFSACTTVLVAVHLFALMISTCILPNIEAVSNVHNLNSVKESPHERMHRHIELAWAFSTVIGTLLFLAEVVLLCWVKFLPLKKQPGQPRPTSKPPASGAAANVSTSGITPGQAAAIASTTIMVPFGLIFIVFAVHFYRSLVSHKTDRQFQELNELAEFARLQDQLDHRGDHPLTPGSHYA
T1 sequence (Q13586 23-685 partner): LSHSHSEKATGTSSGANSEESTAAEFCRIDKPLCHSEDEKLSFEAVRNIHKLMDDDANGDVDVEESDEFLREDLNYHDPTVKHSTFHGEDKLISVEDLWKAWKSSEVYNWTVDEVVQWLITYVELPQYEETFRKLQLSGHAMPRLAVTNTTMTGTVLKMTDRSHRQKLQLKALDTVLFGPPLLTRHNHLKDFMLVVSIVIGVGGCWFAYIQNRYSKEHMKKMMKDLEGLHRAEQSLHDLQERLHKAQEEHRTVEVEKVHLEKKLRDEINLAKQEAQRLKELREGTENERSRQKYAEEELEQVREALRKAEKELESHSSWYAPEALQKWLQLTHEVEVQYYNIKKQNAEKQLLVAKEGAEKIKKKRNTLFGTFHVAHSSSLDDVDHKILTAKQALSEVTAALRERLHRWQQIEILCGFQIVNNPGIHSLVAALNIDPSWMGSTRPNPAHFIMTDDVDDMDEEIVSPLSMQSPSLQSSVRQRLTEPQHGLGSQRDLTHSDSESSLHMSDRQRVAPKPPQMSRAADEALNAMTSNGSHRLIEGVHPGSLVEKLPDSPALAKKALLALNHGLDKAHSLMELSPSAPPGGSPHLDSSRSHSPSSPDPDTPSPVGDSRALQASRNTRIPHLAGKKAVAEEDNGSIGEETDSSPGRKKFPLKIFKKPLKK

As a reminder, the IC50 is the concentration that gives 50% inhibition. For `CCc1c(O)c(O)c2c(c1O)C(=O)C(O)=C(O)C2=O` [Ech A, 6-ethyl-2,3,5,7,8-pentahydroxy-1,4-naphthoquinone], the IC50 in test [1] turned out to be 2410 ± 1550 nM; in test [2], 2110 ± 1050 nM.
